# Data: patent US9938261B2, “Heterocyclic compounds and methods of use thereof” (AMBIT BIOSCIENCES CORPORATION, priority 2011, dated 2018)
# Assays:
# KIT = target: T1, KIT (Homo sapiens, UniProt P10721); experiment: Competition binding assay, KIT Kd; settings: competition binding
# T1 construct: made in house
# Summary of the method: (§1)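 Kinases, either T7 phage fusions or HEK-293-expressed and DNA-tagged, competed with test compounds for immobilized biotinylated affinity ligand on streptavidin beads in binding buffer (20% SeaBlock, 0.17×PBS, 0.05% Tween 20, 6 mM DTT). After 1 hour at room temperature, bead-bound kinase was eluted and quantified by qPCR; Kd from eleven-point threefold dilutions.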
# PDGFRβ = target: T2, PDGFRβ (Homo sapiens, UniProt P09619); experiment: Competition binding assay, PDGFRβ Kd; settings: competition binding
# T2 construct: made in house
# Summary of the method: as §1
# [1] = target: kinase panel containing either 386 or 392 distinct kinases; experiment: Kinase selectivity score S10 from competition binding panel; settings: 10 μM, panel of 386 or 392 distinct kinases
# Summary of the method: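 S10 is the number of kinases with percent-of-control under 10, divided by all distinct wild-type kinases tested, from a single 10 μM concentration. Binding measured by qPCR of kinase recovered from ligand-coated beads after 1 h equilibrium at room temperature; kinases were phage fusions or DNA-tagged HEK-293 products.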
# CSF1R [2] = target: T3, CSF1R (Homo sapiens, UniProt P07333); experiment: Competition binding assay, CSF1R Kd; set-up: made in house; settings: competition binding
# Summary of the method: as §1
# CSF1R [3] = target: T3, CSF1R; experiment: HEK293 CSF1R phosphorylation MSD assay; format: cell-based; set-up: expressed in transfected cells; host or cells: HEK293; settings: HEK293 cells, M-CSF stimulated CSF1R phosphorylation, MSD; read-out: HEK293 pCSF1R M-CSF MSD:IC50
# Summary of the method: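 Ligand-induced CSF1R autophosphorylation was measured by MSD sandwich assay: CSF1R-FKBP from lysates captured via FK506, anti-phosphotyrosine readout. Cells were exposed to compound for 2 h (9-point, half-log, 0.5% DMSO) before 5 min 50 ng/mL M-CSF. Reported IC50 is the mean of duplicate-plate IC50s relative to DMSO control.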
# T1 sequence (P10721 26-976): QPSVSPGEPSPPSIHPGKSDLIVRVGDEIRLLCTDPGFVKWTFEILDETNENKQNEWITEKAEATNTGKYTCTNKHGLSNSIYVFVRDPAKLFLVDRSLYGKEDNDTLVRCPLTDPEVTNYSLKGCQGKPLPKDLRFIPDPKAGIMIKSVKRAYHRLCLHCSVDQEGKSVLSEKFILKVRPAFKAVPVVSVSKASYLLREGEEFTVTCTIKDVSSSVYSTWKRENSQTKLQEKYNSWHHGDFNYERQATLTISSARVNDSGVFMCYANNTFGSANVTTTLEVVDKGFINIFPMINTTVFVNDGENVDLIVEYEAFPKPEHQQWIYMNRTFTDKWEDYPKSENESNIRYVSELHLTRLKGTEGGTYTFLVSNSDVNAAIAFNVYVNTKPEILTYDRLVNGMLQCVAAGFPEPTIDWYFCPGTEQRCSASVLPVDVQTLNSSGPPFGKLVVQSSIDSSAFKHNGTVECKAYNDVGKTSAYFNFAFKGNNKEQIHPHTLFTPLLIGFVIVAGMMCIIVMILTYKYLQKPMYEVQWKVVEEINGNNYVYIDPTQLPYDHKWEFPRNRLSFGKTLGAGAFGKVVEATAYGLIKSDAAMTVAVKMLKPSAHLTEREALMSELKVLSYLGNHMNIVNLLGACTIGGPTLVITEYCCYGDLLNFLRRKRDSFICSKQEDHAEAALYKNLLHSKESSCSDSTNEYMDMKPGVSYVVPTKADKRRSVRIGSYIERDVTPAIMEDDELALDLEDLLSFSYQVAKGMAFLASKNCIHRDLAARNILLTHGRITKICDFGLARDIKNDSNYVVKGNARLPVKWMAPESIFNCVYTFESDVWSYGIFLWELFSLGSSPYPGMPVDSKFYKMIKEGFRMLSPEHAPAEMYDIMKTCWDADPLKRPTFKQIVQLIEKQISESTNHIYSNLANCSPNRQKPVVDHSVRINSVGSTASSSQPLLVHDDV
# T3 sequence (P07333 20-972): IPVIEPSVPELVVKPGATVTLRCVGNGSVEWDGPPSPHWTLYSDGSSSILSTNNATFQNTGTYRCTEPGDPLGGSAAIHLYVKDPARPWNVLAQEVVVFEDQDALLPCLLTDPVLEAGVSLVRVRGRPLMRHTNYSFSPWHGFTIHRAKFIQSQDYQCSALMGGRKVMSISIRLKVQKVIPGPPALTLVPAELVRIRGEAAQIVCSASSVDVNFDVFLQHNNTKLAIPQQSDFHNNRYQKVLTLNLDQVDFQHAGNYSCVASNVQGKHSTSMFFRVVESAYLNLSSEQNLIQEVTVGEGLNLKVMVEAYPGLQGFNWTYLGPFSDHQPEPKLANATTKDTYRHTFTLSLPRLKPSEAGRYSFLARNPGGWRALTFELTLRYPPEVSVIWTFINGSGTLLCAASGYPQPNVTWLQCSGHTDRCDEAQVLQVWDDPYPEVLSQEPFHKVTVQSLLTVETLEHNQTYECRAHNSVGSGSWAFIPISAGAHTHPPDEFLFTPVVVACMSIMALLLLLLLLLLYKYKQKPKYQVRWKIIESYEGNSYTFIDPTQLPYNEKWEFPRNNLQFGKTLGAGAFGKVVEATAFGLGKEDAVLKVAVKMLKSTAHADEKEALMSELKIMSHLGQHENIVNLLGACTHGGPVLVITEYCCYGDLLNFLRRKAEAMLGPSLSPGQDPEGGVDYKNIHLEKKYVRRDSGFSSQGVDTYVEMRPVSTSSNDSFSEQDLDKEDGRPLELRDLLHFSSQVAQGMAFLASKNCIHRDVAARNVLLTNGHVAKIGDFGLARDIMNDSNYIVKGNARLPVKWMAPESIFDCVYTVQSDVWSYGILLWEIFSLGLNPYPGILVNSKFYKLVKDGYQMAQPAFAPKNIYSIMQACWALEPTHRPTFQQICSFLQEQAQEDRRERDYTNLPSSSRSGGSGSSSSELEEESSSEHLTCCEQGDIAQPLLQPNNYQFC
# T2 sequence (P09619 33-1106): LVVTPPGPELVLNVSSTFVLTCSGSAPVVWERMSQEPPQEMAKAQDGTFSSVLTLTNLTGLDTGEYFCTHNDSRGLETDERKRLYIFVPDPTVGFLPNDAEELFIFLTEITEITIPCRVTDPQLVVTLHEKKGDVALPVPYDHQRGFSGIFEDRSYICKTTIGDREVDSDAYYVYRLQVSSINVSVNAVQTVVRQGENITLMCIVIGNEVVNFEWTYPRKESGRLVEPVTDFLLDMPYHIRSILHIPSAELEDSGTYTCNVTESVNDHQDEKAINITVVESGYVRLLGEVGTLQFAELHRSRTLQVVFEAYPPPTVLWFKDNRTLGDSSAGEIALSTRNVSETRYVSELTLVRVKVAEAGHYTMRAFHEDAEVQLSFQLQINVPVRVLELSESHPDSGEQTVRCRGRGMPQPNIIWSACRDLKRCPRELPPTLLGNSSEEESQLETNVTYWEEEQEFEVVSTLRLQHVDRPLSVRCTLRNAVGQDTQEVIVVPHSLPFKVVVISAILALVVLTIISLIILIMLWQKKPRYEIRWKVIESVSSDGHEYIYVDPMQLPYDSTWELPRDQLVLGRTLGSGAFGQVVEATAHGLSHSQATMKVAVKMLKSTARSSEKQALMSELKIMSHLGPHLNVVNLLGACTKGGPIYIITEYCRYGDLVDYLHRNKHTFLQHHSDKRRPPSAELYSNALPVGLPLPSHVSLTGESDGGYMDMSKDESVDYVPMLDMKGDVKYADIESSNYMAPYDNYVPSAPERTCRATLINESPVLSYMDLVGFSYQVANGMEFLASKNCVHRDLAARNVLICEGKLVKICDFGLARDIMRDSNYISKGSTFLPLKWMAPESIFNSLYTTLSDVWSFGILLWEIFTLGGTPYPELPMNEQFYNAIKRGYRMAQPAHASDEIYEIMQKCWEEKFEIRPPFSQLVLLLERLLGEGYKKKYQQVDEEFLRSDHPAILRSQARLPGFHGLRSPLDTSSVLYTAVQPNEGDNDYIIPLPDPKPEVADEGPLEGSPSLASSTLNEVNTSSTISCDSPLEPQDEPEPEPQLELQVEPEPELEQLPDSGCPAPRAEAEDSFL
SMILES,Kd (KIT) [µM],Kd (PDGFRβ) [µM],Kinase specificity S(10) [1],Kd (CSF1R [2]) [µM],IC50 (CSF1R [3]) [µM]
"O=C(O)/C=C/c1ccc2c(c1)ncn2Cc1ccc2nc(N[C@@H]3CCCC[C@H]3O)sc2c1 [Example 224, (E)-3-(1-((2-(((1R,2R)-2-hydroxycyclohexyl)amino)benzo[d]thiazol-6-yl)methyl)-1H-benzo[d]imidazol-5-yl)acrylic acid]",≤ 0.1,0.05 to 0.5,A (A≤0.01),0.005 to 0.02,> 0.5
"O[C@@H]1CCCC[C@H]1Nc1nc2ccc(Cn3cnc4cc(-n5ccnc5)ccc43)cc2s1 [Example 226, (1R,2R)-2-((6-((5-(1H-imidazol-1-yl)-1H-benzo[d]imidazol-1-yl)methyl)benzo[d]thiazol-2-yl)amino)cyclohexanol]",≤ 0.1,≤ 0.05,B (0.01<B≤0.02),≤ 0.005,≤ 0.05
"Cn1nnc(-c2ccc3c(c2)ncn3Cc2ccc3nc(N[C@@H]4CCCC[C@H]4O)sc3c2)n1 [Example 227, (1R,2R)-2-((6-((5-(2-methyl-2H-tetrazol-5-yl)-1H-benzo[d]imidazol-1-yl)methyl)benzo[d]thiazol-2-yl)amino)cyclohexanol]",0.1 to 0.5,0.05 to 0.5,B (0.01<B≤0.02),0.005 to 0.02,≤ 0.05
"O[C@H]1[C@@H](O)CCC[C@H]1Nc1nc2ccc(Cn3cnc4cc(F)cnc43)cc2s1 [Example 228, (1S,2R,3R)-3-((6-((6-fluoro-3H-imidazo[4,5-b]pyridin-3-yl)methyl)benzo[d]thiazol-2-yl)amino)cyclohexane-1,2-diol]",0.5 to 2,0.05 to 0.5,A (A≤0.01),> 0.05,> 0.5
"O[C@@H]1[C@H](O)CCC[C@H]1Nc1nc2ccc(Cc3cnc4cc(-n5cccn5)ccn34)cc2s1 [Example 229, (1R,2S,3R)-3-((6-((7-(1H-pyrazol-1-yl)imidazo[1,2-a]pyridin-3-yl)methyl)benzo[d]thiazol-2-yl)amino)cyclohexane-1,2-diol]",≤ 0.1,≤ 0.05,A (A≤0.01),0.005 to 0.02,≤ 0.05
"O[C@@H]1[C@H](O)CCC[C@H]1Nc1nc2ccc(Cc3cnc4cc(-n5nccn5)ccn34)cc2s1 [Example 231, (1R,2S,3R)-3-((6-((7-(2H-1,2,3-triazol-2-yl)imidazo[1,2-a]pyridin-3-yl)methyl)benzo[d]thiazol-2-yl)amino)cyclohexane-1,2-diol]",0.5 to 2,0.05 to 0.5,A (A≤0.01),0.005 to 0.02,≤ 0.05
"C=Cc1ccc2c(c1)ncn2Cc1ccc2nc(N[C@@H]3CCC[C@@H](O)[C@H]3O)sc2c1 [Example 232, (1R,2S,3R)-3-((6-((5-vinyl-1H-benzo[d]imidazol-1-yl)methyl)benzo[d]thiazol-2-yl)amino)cyclohexane-1,2-diol]",≤ 0.1,≤ 0.05,A (A≤0.01),≤ 0.005,≤ 0.05
"O[C@@H]1[C@H](O)CCC[C@H]1Nc1nc2ccc(Cn3cnc4cc(OC5COC5)ccc43)cc2s1 [Example 233, (1R,2S,3R)-3-((6-((5-(oxetan-3-yloxy)-1H-benzo[d]imidazol-1-yl)methyl)benzo[d]thiazol-2-yl)amino)cyclohexane-1,2-diol]",≤ 0.1,≤ 0.05,A (A≤0.01),≤ 0.005,≤ 0.05
"O[C@@H]1[C@H](O)CCC[C@H]1Nc1nc2ccc(Cn3cnc4cc(-n5cncn5)cnc43)cc2s1 [Example 234, (1R,2S,3R)-3-((6-((6-(1H-1,2,4-Triazol-1-yl)-3H-imidazo[4,5-b]pyridin-3-yl)methyl)benzo[d]thiazol-2-yl)amino)cyclohexane-1,2-diol]",≤ 0.1,≤ 0.05,A (A≤0.01),0.005 to 0.02,0.05 to 0.2
"O[C@@H]1[C@H](O)CCC[C@H]1Nc1nc2ccc(Cn3cnc4cc(N5CCOCC5)ccc43)cc2s1 [Example 235, (1R,2S,3R)-3-((6-((5-morpholino-1H-benzo[d]imidazol-1-yl)methyl)benzo[d]thiazol-2-yl)amino)cyclohexane-1,2-diol]",≤ 0.1,≤ 0.05,A (A≤0.01),0.005 to 0.02,0.05 to 0.2
"Cn1nnc(-c2ccc3c(c2)ncn3Cc2ccc3nc(N[C@@H]4CCC[C@@H](O)[C@H]4O)sc3c2)n1 [Example 236, (1R,2S,3R)-3-((6-((5-(2-methyl-2H-tetrazol-5-yl)-1H-benzo[d]imidazol-1-yl)methyl)benzo[d]thiazol-2-yl)amino)cyclohexane-1,2-diol]",0.1 to 0.5,0.05 to 0.5,A (A≤0.01),0.005 to 0.02,0.05 to 0.2
